Columns and labels:
Format in all cases: biochemical
HDAC2 = molecular target: T1, HDAC2 (Homo sapiens, UniProt Q92769); assay: HDAC Inhibition Screening Assay (FLUOR DE LYS Fluorimetric Drug Discovery Kit), HDAC2; conditions: for inhibition at 2 µM: 2 μM compound; for inhibition at 10 µM: 10 μM compound; for inhibition at 50 µM: 50 μM compound
T1 construct: purchased Enzo Life Sciences
Protocol: (§1) The HDAC1/HDAC2/HDAC3 in vitro activities are detected by Enzo Life Sciences' HDAC1/HDAC2/HDAC3 Fluorimetric Drug Discovery Kit. The assay is based on the FLUOR DE LYS® Substrate and FLUOR DE LYS® Developer combination. The assay procedure has two steps. First, the FLUOR DE LYS® Substrate, which comprises an acetylated lysine side chain, is incubated with HDAC1/HDAC2/HDAC3, respectively. Deacetylation of the substrate sensitizes the substrate so that, in the second step, treatment with the FLUOR DE LYS® Developer produces a fluorophore. The signals of the test compounds (Compounds 1˜83; at concentrations of 2 μM, 10 μM and 50 μM) in 96-well plates are detected at 360 nm or 485 nm excitation and 460 nm or 530 nm emission with a Molecular Devices SpectraMax i3 Imaging Cytometer. The HDAC1/HDAC2/HDAC3 activities are expressed in percentage of basal control minus baseline control.

HDAC1 = molecular target: T2, HDAC1 (Homo sapiens, UniProt Q13547); assay: HDAC Inhibition Screening Assay (FLUOR DE LYS Fluorimetric Drug Discovery Kit), HDAC1; conditions: for inhibition at 2 µM: 2 μM compound; for inhibition at 10 µM: 10 μM compound; for inhibition at 50 µM: 50 μM compound
T2 construct: purchased Enzo Life Sciences
Protocol: as §1

HDAC3 = molecular target: T3, HDAC3 (Homo sapiens, UniProt O15379); assay: HDAC Inhibition Screening Assay (FLUOR DE LYS Fluorimetric Drug Discovery Kit), HDAC3; conditions: for inhibition at 2 µM: 2 μM compound; for inhibition at 10 µM: 10 μM compound; for inhibition at 50 µM: 50 μM compound
T3 construct: purchased Enzo Life Sciences
Protocol: as §1

ATX (autotaxin) = molecular target: T4, ATX (autotaxin) (Homo sapiens, UniProt Q13822); assay: Autotaxin Inhibition Screening Assay (choline release from LPC, LPC-CR); conditions: for inhibition at 4 µM: 4 μM compound; for inhibition at 20 µM: 20 μM compound; for inhibition at 50 µM: 50 μM compound
T4 construct: purchased Cayman 10803
Protocol: ATX (autotaxin) activity was measured by choline release from LPC in presence or absence of test compounds (Compounds 1˜83; at concentrations of 4 μM, 20 μM and 50 μM). Twenty (20) ng ATX (10803, Cayman, MI, USA) was incubated with 100 μM 14:0 LPC (855575P, Avanti, AL, USA) in a final volume of 100 μL buffer containing 50 mM Tris pH 8.0, 0.01% Triton X-100, 50 mM CaCl2, 1 unit/ml choline oxidase, 2 unit/ml horseradish peroxidase (HRP), 2 mM homovanilic acid (HVA). The relative amount of released choline was measured by HVA fluorescence in a 96-well plate. Fluorescent intensity was determined at λex/λem=320/450 nm every 60 sec for 90 min with a SpectraMax i3 (Molecular Devices, CA, USA). Data analysis was performed using GraphPad Prism (GraphPad, La Jolla CA, USA). Inhibition %=[1−(SlopeTA−SlopeBlank)/(SlopeVehicle−SlopeBlank)]×100% HDAC Inhibition Screening Assay

T3 sequence (O15379 whole entry): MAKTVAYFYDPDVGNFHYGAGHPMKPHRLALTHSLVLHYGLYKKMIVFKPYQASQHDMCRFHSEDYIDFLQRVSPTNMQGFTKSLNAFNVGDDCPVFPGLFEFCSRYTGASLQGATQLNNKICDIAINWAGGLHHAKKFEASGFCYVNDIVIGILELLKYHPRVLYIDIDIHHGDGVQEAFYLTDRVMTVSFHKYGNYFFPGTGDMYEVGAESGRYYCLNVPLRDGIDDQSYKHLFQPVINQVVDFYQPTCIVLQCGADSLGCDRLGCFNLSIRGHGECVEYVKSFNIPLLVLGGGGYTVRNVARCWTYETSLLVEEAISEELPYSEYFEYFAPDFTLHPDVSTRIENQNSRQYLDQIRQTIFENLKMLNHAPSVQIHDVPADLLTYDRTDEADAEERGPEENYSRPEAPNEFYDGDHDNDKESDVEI
T3 sequence (O75376 395-489 partner limits assumed): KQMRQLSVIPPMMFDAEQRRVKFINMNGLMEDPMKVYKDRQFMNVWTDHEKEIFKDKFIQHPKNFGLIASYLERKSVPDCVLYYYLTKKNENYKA
T2 sequence (Q13547 whole entry): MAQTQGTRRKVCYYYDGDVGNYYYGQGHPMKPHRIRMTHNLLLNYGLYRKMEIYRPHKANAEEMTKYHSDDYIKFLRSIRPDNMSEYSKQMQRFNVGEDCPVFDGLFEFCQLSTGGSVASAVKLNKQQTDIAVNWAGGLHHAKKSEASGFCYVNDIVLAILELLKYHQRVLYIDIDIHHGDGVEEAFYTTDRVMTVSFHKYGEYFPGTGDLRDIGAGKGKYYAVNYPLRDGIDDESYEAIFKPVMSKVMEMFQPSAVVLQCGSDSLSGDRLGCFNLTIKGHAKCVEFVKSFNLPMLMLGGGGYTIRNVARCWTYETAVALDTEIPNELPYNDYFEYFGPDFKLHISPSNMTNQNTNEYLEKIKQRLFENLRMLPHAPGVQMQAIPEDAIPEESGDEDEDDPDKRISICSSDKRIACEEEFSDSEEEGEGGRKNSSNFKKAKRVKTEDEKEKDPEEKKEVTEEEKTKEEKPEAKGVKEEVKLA
T1 sequence (Q92769 whole entry): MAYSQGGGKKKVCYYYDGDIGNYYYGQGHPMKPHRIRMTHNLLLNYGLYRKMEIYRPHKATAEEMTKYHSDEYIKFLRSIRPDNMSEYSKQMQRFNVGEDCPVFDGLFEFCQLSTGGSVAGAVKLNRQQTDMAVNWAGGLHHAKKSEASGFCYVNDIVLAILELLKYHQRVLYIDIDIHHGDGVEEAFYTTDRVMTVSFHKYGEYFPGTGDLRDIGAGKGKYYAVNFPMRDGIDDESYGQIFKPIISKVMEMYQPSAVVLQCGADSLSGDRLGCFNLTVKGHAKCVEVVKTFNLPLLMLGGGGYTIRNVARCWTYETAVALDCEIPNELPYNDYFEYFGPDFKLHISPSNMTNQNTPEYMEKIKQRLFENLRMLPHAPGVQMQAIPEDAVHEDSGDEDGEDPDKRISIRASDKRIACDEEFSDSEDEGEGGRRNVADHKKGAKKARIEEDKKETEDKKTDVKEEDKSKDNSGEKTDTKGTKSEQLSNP

| Compound | inhibition at 2 µM (HDAC2) [%] | inhibition at 10 µM (HDAC2) [%] | inhibition at 50 µM (HDAC2) [%] | inhibition at 2 µM (HDAC1) [%] | inhibition at 10 µM (HDAC1) [%] | inhibition at 50 µM (HDAC1) [%] | inhibition at 2 µM (HDAC3) [%] | inhibition at 10 µM (HDAC3) [%] | inhibition at 50 µM (HDAC3) [%] | inhibition at 4 µM (ATX (autotaxin)) [%] | inhibition at 20 µM (ATX (autotaxin)) [%] | inhibition at 50 µM (ATX (autotaxin)) [%] |
| --- | --- | --- | --- | --- | --- | --- | --- | --- | --- | --- | --- | --- |
| O=C(NO)c1ccc(COc2ccc3c(c2)CC(Cc2cc(C(F)(F)F)cc(C(F)(F)F)c2)C3=O)cc1 (stereo not drawn) [Compound 77, 4-(((2-(3,5-bis(trifluoromethyl)benzyl)-1-oxo-2,3-dihydro-1H-inden-5-yl)oxy)methyl)-N-hydroxybenzamide] | < 50 | 50 to 80 | 50 to 80 | < 50 | < 50 | 50 to 80 | < 50 | < 50 | 50 to 80 | > 80 | > 80 | > 80 |
| O=C(CCCCCCC(=O)NC1CCc2cc(Br)ccc21)NO (stereo not drawn) [Compound 40, N1-(5-bromo-2,3-dihydro-1H-inden-1-yl)-N8-hydroxyoctanediamide] | > 80 | > 80 | > 80 | 50 to 80 | > 80 | > 80 | > 80 | > 80 | > 80 | < 50 | < 50 | < 50 |
| Nc1cc(F)ccc1NC(=O)c1ccc(COc2ccc3c(c2)CC(Cc2cc(C(F)(F)F)cc(C(F)(F)F)c2)C3=O)cc1 (stereo not drawn) [Compound 76, N-(2-amino-4-fluorophenyl)-4-(((2-(3,5-bis(trifluoromethyl)benzyl)-1-oxo-2,3-dihydro-1H-inden-5-yl)oxy)methyl)benzamide] | < 50 | < 50 | < 50 | < 50 | < 50 | < 50 | < 50 | < 50 | < 50 | < 50 | < 50 | < 50 |
| Nc1cc(F)ccc1NC(=O)CCCCC(=O)N1CCN(C(=O)c2ccc3c(c2)CC/C(=C\c2cc(C(F)(F)F)cc(C(F)(F)F)c2)C3=O)CC1 [Compound 82, (E)-N-(2-amino-4-fluorophenyl)-6-(4-(6-(3,5-bis(trifluoromethyl)benzylidene)-5-oxo-5,6,7,8-tetrahydronaphthalene-2-carbonyl)piperazin-1-yl)-6-oxohexanamide] | < 50 | < 50 | < 50 | < 50 | < 50 | < 50 | < 50 | < 50 | 50 to 80 | > 80 | > 80 | > 80 |
| O=C(/C=C/c1ccc2c(c1)CC/C(=C\c1cc(C(F)(F)F)cc(C(F)(F)F)c1)C2=O)NO [Compound 7, (E)-3-(6-((E)-3,5-bis(trifluoromethyl)benzylidene)-5-oxo-5,6,7,8-tetrahydronaphthalen-2-yl)-N-hydroxyacrylamide] | < 50 | < 50 | 50 to 80 | < 50 | < 50 | 50 to 80 | < 50 | < 50 | 50 to 80 | < 50 | 50 to 80 | 50 to 80 |

Other lines, results leading:

| inhibition at 2 µM (HDAC2) [%] | inhibition at 10 µM (HDAC2) [%] | inhibition at 50 µM (HDAC2) [%] | inhibition at 2 µM (HDAC1) [%] | inhibition at 10 µM (HDAC1) [%] | inhibition at 50 µM (HDAC1) [%] | inhibition at 2 µM (HDAC3) [%] | inhibition at 10 µM (HDAC3) [%] | inhibition at 50 µM (HDAC3) [%] | inhibition at 4 µM (ATX (autotaxin)) [%] | inhibition at 20 µM (ATX (autotaxin)) [%] | inhibition at 50 µM (ATX (autotaxin)) [%] | Compound |
| --- | --- | --- | --- | --- | --- | --- | --- | --- | --- | --- | --- | --- |
| > 80 | > 80 | > 80 | > 80 | > 80 | > 80 | > 80 | > 80 | > 80 | < 50 | < 50 | < 50 | COc1ccc(N2C(=O)CN(C3CCc4cc(/C=C/C(=O)NO)ccc43)C2=O)cc1 (stereo not drawn) [Compound 38, (E)-N-hydroxy-3-(1-(3-(4-methoxyphenyl)-2,4-dioxoimidazolidin-1-yl)-2,3-dihydro-1H-inden-5-yl)acrylamide] |
| > 80 | > 80 | > 80 | > 80 | > 80 | > 80 | 50 to 80 | > 80 | > 80 | < 50 | < 50 | < 50 | O=C(/C=C/c1ccc2c(c1)CCC2NC(=O)c1ccc(F)cc1)NCCCCCC(=O)NO (stereo not drawn) [Compound 32, (E)-4-fluoro-N-(5-(3-((6-(hydroxyamino)-6-oxohexyl)amino)-3-oxoprop-1-en-1-yl)-2,3-dihydro-1H-inden-1-yl)benzamide] |
| 50 to 80 | > 80 | > 80 | < 50 | 50 to 80 | > 80 | > 80 | > 80 | > 80 | < 50 | < 50 | < 50 | Nc1cc(F)ccc1NC(=O)/C=C/c1ccc2c(c1)CCC2NCCc1c[nH]c2ccccc12 (stereo not drawn) [Compound 57, (E)-3-(1-((2-(1H-indol-3-yl)ethyl)amino)-2,3-dihydro-1H-inden-5-yl)-N-(2-amino-4-fluorophenyl)acrylamide] |
| < 50 | < 50 | < 50 | < 50 | < 50 | < 50 | < 50 | 50 to 80 | 50 to 80 | < 50 | < 50 | < 50 | Nc1cc(F)ccc1NC(=O)CCCCCCC(=O)NC1CCc2cc(Br)ccc21 (stereo not drawn) [Compound 39, N^1-(2-amino-4-fluorophenyl)-N8-(5-bromo-2,3-dihydro-1H-inden-1-yl)octanediamide] |
| < 50 | < 50 | < 50 | < 50 | < 50 | < 50 | < 50 | < 50 | < 50 | < 50 | < 50 | < 50 | Nc1cc(F)ccc1NC(=O)/C=C/c1ccc2c(c1)CCC2NS(=O)(=O)c1cc(C(F)(F)F)cc(C(F)(F)F)c1 (stereo not drawn) [Compound 17, (E)-N-(2-amino-4-fluorophenyl)-3-(1-((3,5-bis(trifluoromethyl)phenyl)sulfonamido)-2,3-dihydro-1H-inden-5-yl)acrylamide] |
| < 50 | < 50 | 50 to 80 | < 50 | < 50 | 50 to 80 | < 50 | < 50 | 50 to 80 | 50 to 80 | 50 to 80 | 50 to 80 | O=C(/C=C/c1ccc(COc2ccc3c(c2)CC/C(=C\c2cc(C(F)(F)F)cc(C(F)(F)F)c2)C3=O)cc1)NO [Compound 72, (E)-3-(4-(((6-((E)-3,5-bis(trifluoromethyl)benzylidene)-5-oxo-5,6,7,8-tetrahydronaphthalen-2-yl)oxy)methyl)phenyl)-N-hydroxyacrylamide] |
| > 80 | > 80 | > 80 | > 80 | > 80 | > 80 | > 80 | > 80 | > 80 | < 50 | < 50 | < 50 | O=C(/C=C/c1ccc2c(c1)CCC2NCCc1ccc(F)cc1)NO (stereo not drawn) [Compound 53] |
| > 80 | > 80 | > 80 | > 80 | > 80 | > 80 | > 80 | > 80 | > 80 | < 50 | < 50 | < 50 | O=C(/C=C/c1ccc2c(c1)CCC2NCCc1cc(C(F)(F)F)cc(C(F)(F)F)c1)NO (stereo not drawn) [Compound 54, (E)-3-(1-((3,5-bis(trifluoromethyl)phenethyl)amino)-2,3-dihydro-1H-inden-5-yl)-N-hydroxyacrylamide] |

Reference: US12162820B2 (TAIWANJ PHARMACEUTICALS CO., LTD., priority 2019, dated 2024)
